Experiments:
[1] = target: adenosine A2A receptor (Homo sapiens (Human), UniProt P29274); assay: Adenosine receptor activity assay (Table 1), A2A activity; type: biochemical; conditions: read-out: Ave A2A cAMP IC50
[2] = Hepatocyte (Hep) intrinsic clearance, rat; type: in vitro ADME; conditions: hepatocytes
[3] = target: T1, adenosine A3 receptor (Homo sapiens (Human), UniProt P0DMS8); assay: A3 cAMP IC50 assay (Table 1); type: biochemical
[4] = target: CYP2D6 (Homo sapiens (Human), UniProt P10635); assay: CYP450 inhibition at 10 μM, CYP2D6; type: in vitro ADME; conditions: read-out: CYP 450 % INH @ 10 μM
[5] = target: CYP3A4 (Homo sapiens (Human), UniProt P08684); assay: CYP450 inhibition at 10 μM, CYP3A4; type: in vitro ADME; conditions: human, 10 μM, read-out: CYP 450 % INH @ 10 μM
[6] = Hepatocyte (Hep) intrinsic clearance, monkey; type: in vitro ADME; conditions: hepatocytes
[7] = Liver microsome (LM) intrinsic clearance, human; type: in vitro ADME
[8] = target: T2, adenosine A1 receptor (Homo sapiens (Human), UniProt P30542); assay: A1 cAMP IC50 assay (Table 1); type: biochemical
[9] = Liver microsome (LM) intrinsic clearance, rat; type: in vitro ADME
[10] = target: adenosine A2B receptor (Homo sapiens (Human), UniProt P29275); assay: Adenosine receptor activity assay (Table 1), A2B activity; type: biochemical; conditions: for Ratio: A2A activity to A2B activity (A2A/A2B); for IC50: read-out: Ave A2B cAMP IC50
[11] = Hepatocyte (Hep) intrinsic clearance, human; type: in vitro ADME; conditions: hepatocytes
[12] = Hepatocyte (Hep) intrinsic clearance, dog; type: in vitro ADME; conditions: hepatocytes
[13] = tested on: CYP 450; assay: CYP450 inhibition at 10 μM; type: in vitro ADME
[14] = Hepatocyte intrinsic clearance, human; type: in vitro ADME
[15] = Hepatocyte intrinsic clearance, rat; type: in vitro ADME
[16] = target: T2, adenosine A1 receptor; assay: Adenosine receptor activity assay (Table 1), A1 cAMP; type: cell-based
[17] = target: T1, adenosine A3 receptor; assay: Adenosine receptor activity assay (Table 1), A3 cAMP; type: cell-based

CYP2D6, sequence (P10635 whole entry): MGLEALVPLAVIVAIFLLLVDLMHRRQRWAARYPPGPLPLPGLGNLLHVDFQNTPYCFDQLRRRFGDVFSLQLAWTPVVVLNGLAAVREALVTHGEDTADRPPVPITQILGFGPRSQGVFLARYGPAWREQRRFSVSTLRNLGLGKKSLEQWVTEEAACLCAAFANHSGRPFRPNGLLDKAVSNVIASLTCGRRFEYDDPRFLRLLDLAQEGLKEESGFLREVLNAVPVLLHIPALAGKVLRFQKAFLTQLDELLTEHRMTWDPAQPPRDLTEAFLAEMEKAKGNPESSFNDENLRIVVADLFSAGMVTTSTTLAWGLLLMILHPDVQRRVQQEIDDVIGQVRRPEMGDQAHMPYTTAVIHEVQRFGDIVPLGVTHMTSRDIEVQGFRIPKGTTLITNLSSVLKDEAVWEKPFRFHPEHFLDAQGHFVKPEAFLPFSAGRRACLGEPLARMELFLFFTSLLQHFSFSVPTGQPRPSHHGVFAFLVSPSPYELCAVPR
adenosine A2A receptor, sequence (P29274 whole entry): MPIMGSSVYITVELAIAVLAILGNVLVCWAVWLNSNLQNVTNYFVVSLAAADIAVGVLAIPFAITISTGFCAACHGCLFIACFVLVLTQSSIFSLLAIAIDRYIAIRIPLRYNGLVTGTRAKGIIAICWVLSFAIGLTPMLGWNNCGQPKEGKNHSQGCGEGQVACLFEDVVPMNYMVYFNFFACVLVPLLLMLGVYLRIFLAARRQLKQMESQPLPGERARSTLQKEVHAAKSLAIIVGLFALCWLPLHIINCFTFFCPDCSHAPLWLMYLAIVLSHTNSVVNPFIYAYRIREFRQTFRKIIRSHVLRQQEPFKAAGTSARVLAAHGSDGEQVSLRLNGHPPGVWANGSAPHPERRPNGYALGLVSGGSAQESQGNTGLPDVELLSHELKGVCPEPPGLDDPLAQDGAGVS
T1 sequence (P0DMS8 whole entry): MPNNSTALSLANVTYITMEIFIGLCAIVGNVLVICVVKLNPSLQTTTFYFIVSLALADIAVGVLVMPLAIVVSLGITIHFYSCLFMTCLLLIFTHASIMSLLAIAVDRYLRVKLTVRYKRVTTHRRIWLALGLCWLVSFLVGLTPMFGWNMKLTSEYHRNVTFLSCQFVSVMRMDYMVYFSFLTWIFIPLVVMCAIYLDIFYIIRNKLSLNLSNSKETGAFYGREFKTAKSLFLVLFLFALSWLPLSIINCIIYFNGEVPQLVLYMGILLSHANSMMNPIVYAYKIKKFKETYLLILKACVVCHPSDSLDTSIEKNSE
adenosine A2B receptor, sequence (P29275 whole entry): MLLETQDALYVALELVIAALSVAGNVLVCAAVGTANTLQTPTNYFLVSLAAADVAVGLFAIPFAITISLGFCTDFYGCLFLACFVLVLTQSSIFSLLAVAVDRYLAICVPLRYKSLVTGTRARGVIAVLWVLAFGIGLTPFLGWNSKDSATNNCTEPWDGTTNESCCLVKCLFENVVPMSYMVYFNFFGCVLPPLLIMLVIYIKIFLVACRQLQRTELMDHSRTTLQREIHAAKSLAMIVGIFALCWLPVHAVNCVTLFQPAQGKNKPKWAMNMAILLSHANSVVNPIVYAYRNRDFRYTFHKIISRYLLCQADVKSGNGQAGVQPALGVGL
CYP3A4, sequence (P08684 whole entry): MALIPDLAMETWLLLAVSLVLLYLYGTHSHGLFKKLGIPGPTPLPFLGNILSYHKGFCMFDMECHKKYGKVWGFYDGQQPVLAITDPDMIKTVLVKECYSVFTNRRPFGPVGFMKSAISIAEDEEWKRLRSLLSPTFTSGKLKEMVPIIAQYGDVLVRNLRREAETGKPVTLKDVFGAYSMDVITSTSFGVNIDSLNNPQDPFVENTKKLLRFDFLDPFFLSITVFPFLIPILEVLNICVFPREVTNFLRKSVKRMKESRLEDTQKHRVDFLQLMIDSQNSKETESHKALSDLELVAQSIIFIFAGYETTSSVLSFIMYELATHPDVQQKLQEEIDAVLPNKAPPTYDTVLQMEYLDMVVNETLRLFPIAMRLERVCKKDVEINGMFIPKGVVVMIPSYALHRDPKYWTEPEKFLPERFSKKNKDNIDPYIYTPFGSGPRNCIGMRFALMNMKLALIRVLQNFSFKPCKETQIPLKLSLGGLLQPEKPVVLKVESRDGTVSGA
T2 sequence (P30542 whole entry): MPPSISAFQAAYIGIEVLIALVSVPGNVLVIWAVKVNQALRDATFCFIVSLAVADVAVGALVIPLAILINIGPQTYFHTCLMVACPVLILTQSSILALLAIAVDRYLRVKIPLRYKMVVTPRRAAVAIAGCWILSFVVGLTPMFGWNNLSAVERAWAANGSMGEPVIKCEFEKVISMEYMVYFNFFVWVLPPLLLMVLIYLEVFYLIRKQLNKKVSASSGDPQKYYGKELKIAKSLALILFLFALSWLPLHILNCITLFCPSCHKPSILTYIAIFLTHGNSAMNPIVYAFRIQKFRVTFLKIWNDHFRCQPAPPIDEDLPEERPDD

## C[C@H](Nc1nc(C(=O)N2CC[C@H](O)C2)c2sccc2n1)c1ccccn1 [Example Z58, ((S)-3-Hydroxypyrrolidin-1-yl)(2-(((S)-1-(pyridin-2-yl)ethyl)amino)thieno[3,2-d]pyrimidin-4-yl)methanone]
[1]
  IC50: > 500 nM
[2]
  hepatocyte CLint: 4.46 µL/min/1e6 cells
[3]
  IC50: > 500 nM
[4]
  inhibition at 10 µM: 10%
[5]
  inhibition at 10 µM: 0%
[6]
  hepatocyte CLint: 0.19 µL/min/1e6 cells
[7]
  LM CLint: 5.60 μL/min/mg/protein
[8]
  IC50: > 500 nM
[9]
  LM CLint: 0.0 μL/min/mg/protein
[10]
  Ratio: 15.14
  IC50: 50 to 100 nM
[11]
  hepatocyte CLint: 2.21 µL/min/1e6 cells
[12]
  hepatocyte CLint: 1.73 µL/min/1e6 cells

## C[C@H](Nc1nc(C(=O)N2CC[C@H](O)C2)c2sccc2n1)c1cccnc1 [Example Z28, ((S)-3-Hydroxypyrrolidin-1-yl)(2-(((S)-1-(pyridin-3-yl)ethyl)amino)thieno[3,2-d]pyrimidin-4-yl)methanone]
[1]
  IC50: > 500 nM
[2]
  hepatocyte CLint: 34.7 µL/min/1e6 cells
[3]
  IC50: > 500 nM
[4]
  inhibition at 10 µM: 11%
[5]
  inhibition at 10 µM: 35%
[6]
  hepatocyte CLint: 0.62 µL/min/1e6 cells
[7]
  LM CLint: 4.55 μL/min/mg/protein
[8]
  IC50: > 500 nM
[9]
  LM CLint: 9.33 μL/min/mg/protein
[10]
  Ratio: 39.41
  IC50: 50 to 100 nM
[11]
  hepatocyte CLint: 3.48 µL/min/1e6 cells
[12]
  hepatocyte CLint: 2.59 µL/min/1e6 cells

## C[C@H](Nc1nc(C(=O)N2CCCC2)c2sccc2n1)c1ccccn1 [Example Z10, (S)-(2-((1-(Pyridin-2-yl)ethyl)amino)thieno[3,2-d]pyrimidin-4-yl)(pyrrolidin-1-yl)methanone]
[1]
  IC50: 50 to 100 nM
[2]
  hepatocyte CLint: 26.7 µL/min/1e6 cells
[3]
  IC50: > 500 nM
[4]
  inhibition at 10 µM: 8%
[5]
  inhibition at 10 µM: 0%
[6]
  hepatocyte CLint: 17.9 µL/min/1e6 cells
[7]
  LM CLint: 16.29 μL/min/mg/protein
[8]
  IC50: > 500 nM
[9]
  LM CLint: 15.05 μL/min/mg/protein
[10]
  Ratio: 7.99
  IC50: < 10 nM
[11]
  hepatocyte CLint: 6.53 µL/min/1e6 cells
[12]
  hepatocyte CLint: 46.1 µL/min/1e6 cells

## C[C@H](Nc1nc(C(=O)N2CC[C@@H](F)C2)c2sccc2n1)c1ccccn1 [Example Z52, ((R)-3-Fluoropyrrolidin-1-yl)(2-(((S)-1-(pyridin-2-yl)ethyl)amino)thieno[3,2-d]pyrimidin-4-yl)methanone]
[1]
  IC50: 10 to 50 nM
[2]
  hepatocyte CLint: 45.3 µL/min/1e6 cells
[3]
  IC50: > 500 nM
[4]
  inhibition at 10 µM: 0%
[5]
  inhibition at 10 µM: 7%
[6]
  hepatocyte CLint: 18.7 µL/min/1e6 cells
[7]
  LM CLint: 11.20 μL/min/mg/protein
[8]
  IC50: > 500 nM
[9]
  LM CLint: 11.87 μL/min/mg/protein
[10]
  Ratio: 5.74
  IC50: < 10 nM
[11]
  hepatocyte CLint: 12.7 µL/min/1e6 cells
[12]
  hepatocyte CLint: 41.7 µL/min/1e6 cells

## (6-Amino-2-(((S)-1-(5-fluoropyridin-3-yl)ethyl)amino)thieno[3,2-d]pyrimidin-4-yl)((S)-3-hydroxypyrrolidin-1-yl)methanone [Example Z212]
[13]
  CYP 450 % INH @ 10 μM: 19.6%
[1]
  IC50: > 500 nM
[14]
  Hep CLint: 1.64 mL/min/10^6 cells
[15]
  Hep CLint: 5.95 mL/min/10^6 cells
[10]
  Ratio: 149.76
  IC50: < 10 nM
[16]
  IC50: > 500 nM
[17]
  IC50: > 500 nM
